Experimental data: patent publication US20130178835A1, “IDENTIFYING SYNTHETIC LIGANDS THAT BIND T-CELLS FROM PATIENTS HAVING AN AUTOIMMUNE DISEASE” (The Board of Regents of the University of Texas System, priority 2009, published 2013)
“Also recorded” adds a separate entry of the source. Non-standard residues stand in square brackets, D forms with d. Residues, ends and D or L forms follow the SMILES beside them. Nrpe = C[C@@H](NCC(=O)O)c1ccccc1; NFurfurylGly = O=C(O)CNCc1ccco1; Nleu = CC(C)CNCC(=O)O; Nlys = NCCCCNCC(=O)O

Experiments:
[1] = tested on: Vα2.3/Vβ8.2 MBP Acl-11 TCR transgenic T cells; assay: Flow cytometry binding assay (periodate cross-linking, streptavidin-APC MFI); parameters: species or system mouse; settings: biotin-DOPA-AG12A 1-500 μM, cross-linked with periodate; MFI fitted with Graphpad Prism; estimated
Procedure: Following isolation of CD4+ T cells from TCR transgenic mice and WT controls, cells were washed and resuspended in 0.1% PBS/BSA (FACS buffer). The cells were incubated with increasing concentrations (1 μM, 10 μM, 100 μM, 250 μM, or 500 μM) of either the biotin-DOPA-AG12A peptoid or a biotin-DOPA-control peptoid and incubated for 30 min at 37° C. 5 mM sodium periodate was added to the cells briefly to cross-link the peptoid to the target receptor. This reaction was quenched with DTT and the cells were washed twice with 0.1% PBS/BSA. Fc block (BD Biosciences) was added to the cells for 15 min on ice in order to reduce non-specific binding to Fc receptors. The cells were stained with 1 μg anti CD4-PerCp Cy5.5 antibody and 0.02 μg streptavidin-APC antibody (BD Biosciences) for 15 minutes on ice. The staining was followed by 2 washes with 0.1% PBS/BSA and the cells were run on a FACS Calibur flow cytometer to assess peptoid binding. The data were analyzed using Flowjo software (Treestar) to determine the mean fluorescent intensity and are shown as histograms. The mean fluorescent intensities (MFI) were plotted using Graphpad Prism software to determine an estimated Kd value and are depicted as a line graph.

[2] = tested on: CD4+ T cells from MBP Acl-11 TCR transgenic mice; assay: Binding of quantum dot-labeled T cells to peptoid resynthesized on beads; parameters: species or system mouse; settings: Tentagel beads, red quantum dot-labeled T cells
Description: Approximately 300,000 beads were swelled in DMF, washed with PBS, and equilibrated in complete RPMI 1640 media containing 3% BSA. CD4+ T cells isolated from either EAE or wild-type mice were resuspended in RPMI and labeled using quantum dots (Invitrogen) according to manufacturer's instructions. CD4+ T cells from EAE mice were labeled with Qtracker 655 (red) and CD4+ T cells from wild-type mice were labeled with Qtracker 565 (green). Labeled cells were mixed in a 1:1 ratio with a total of approximately 10×10^6 of each cell type. The cells were then incubated with the peptoid bead library overnight in a 37° C. incubator with 5% CO2 and gentle shaking. The beads were gently washed 2 times with RPMI media and were then visualized under a fluorescent microscope (Olympus BX-51) with excitation 340-380 nm using a DAPI filter (100×total magnification). Beads binding only to red labeled cells were selected manually using a 20 μl pipette. The “hit” beads were then washed, boiled with 1% SDS for 30 minutes and subjected to automated Edman sequencing.
(§1) To determine whether AG12A was binding to the autoreactive TCR, the inventors took advantage of the existence of transgenic mice, in which the vast majority of CD4+ T cells express the MBP Acl-11 specific TCR (Vα2.3/Vβ8.2 TCR) (Goverman et al., 1993). CD4+ T cells were isolated from these mice and tested for binding to AG12A. […]

[3] = tested on: CD4+ T cells from B10.PL wild-type control mice; assay: as above; parameters: species or system mouse; settings: Tentagel beads, red quantum dot-labeled T cells
Procedure: Approximately 300,000 beads were swelled in DMF, washed with PBS, and equilibrated in complete RPMI 1640 media containing 3% BSA. CD4+ T cells isolated from either EAE or wild-type mice were resuspended in RPMI and labeled using quantum dots (Invitrogen) according to manufacturer's instructions. […] Labeled cells were mixed in a 1:1 ratio with a total of approximately 10×10^6 of each cell type. The cells were then incubated with the peptoid bead library overnight in a 37° C. incubator with 5% CO2 and gentle shaking. The beads were gently washed 2 times with RPMI media and were then visualized under a fluorescent microscope (Olympus BX-51) with excitation 340-380 nm using a DAPI filter (100×total magnification). Beads binding only to red labeled cells were selected manually using a 20 μl pipette. The “hit” beads were then washed, boiled with 1% SDS for 30 minutes and subjected to automated Edman sequencing.
as §1, with “AG12A. This was done in several ways. First, AG12A was resynthesized on beads, as was a control peptoid not selected as a T cell ligand (FIG. 6).” for “AG12A.”

[4] = tested on: B cells from B10.PL wild-type mice; assay: CFSE proliferation assay; format: cell-based, mouse; settings: 1-500 μM peptoid, stimulated with LPS
Procedure: (§2) Following CD4+ T cell isolation, Vα2.3Vβ8.2 TCR transgenic T cells, B cells, or MOG-35-55 TCR transgenic T cells were labeled with CFSE (molecular probes) according to manufacturer's instructions. Briefly, cells were resuspended at a concentration of 1×10^6 per ml in PBS and incubated with 0.5 μM CFSE at 37° C. for 10 min. The staining was quenched with addition of 5 volumes of culture media containing 10% FBS. The cells were centrifuged, washed, and resuspended in complete RPMI 1640 media. The cells were then plated at 1×10^6 per ml. and incubated with increasing concentrations of either AG12A peptoid or a control peptoid (1 μM, 10 μM, 20 μM, 40 μM, 60 μM, 80 μM, 100 μM, 200 μM, or 500 μM) for 30 min at 37° C. Antigen presenting cells were isolated from spleens of WT B10.PL mice and 10 μg/ml of MBP Acl-11, MOG 35-55, or LPS were then added to the culture to stimulate the cells. The cells were left in culture for 5 days, stained with an anti-CD4-PerCp antibody (BD Biosciences), and run on the FACS Calibur flow cytometer to assess cell division. The data were analyzed using Flowjo software (Treestar) proliferation platform to determine percentage of dividing cells. The percent division was graphed using Graphpad Prism software and depicted as a line graph.

[5] = tested on: CD4+ MBP Acl-11 specific murine TCR transgenic T cells; assay: CFSE proliferation assay; format: cell-based, mouse; settings: 1-500 μM peptoid, MBP Acl-11 peptide 10 μg/ml and antigen presenting cells, 5 days
Procedure: as §2

[6] = tested on: CD4+ T cells from MOG 35-55 TCR transgenic mice; assay: CFSE proliferation assay; format: cell-based, mouse; settings: 1-500 μM peptoid, stimulated with MOG 35-55 peptide and antigen presenting cells
Procedure: as §2

## CC(C)CN(CC(=O)N(CCCCN)CC(=O)N(CC(=O)N(CC(=O)N(CCCCN)CC(=O)N(CC(=O)N(CCCCN)CC(=O)N(CCCCN)CC(N)=O)CC(C)C)[C@H](C)c1ccccc1)Cc1ccco1)C(=O)CNCCCCN [AG12A] (H-[Nlys][Nleu][Nlys][NFurfurylGly][Nrpe][Nlys][Nleu][Nlys][Nlys]-NH2)
[1]
  Kd: ~40 µM
[2]
  binding of T cells to peptoid displayed on beads: bound; also recorded: bind to AG12A peptoid beads
[3]
  binding of T cells to peptoid displayed on beads: did not; also recorded: do not bind
[4]
  inhibition of proliferation (percent division): nor did AG12A inhibit
[5]
  inhibition of proliferation (percent division): inhibits proliferation
[6]
  inhibition of proliferation (percent division): did not inhibit
